Results from patent US20040076974A1, “Liver necrosis predictive genes” (priority 2002, published 2004).
“And” between values parts separate entries of the source, which are not always exact repeats. Identical values can stand only once. Like-named read-outs stand apart in the source and are kept apart here.

How the values were obtained:
[1] = tested on: toxicologically relevant rat genes (rat CT array)
Sprague Dawley rats = tested on: Sprague Dawley rats
Description: Sprague Dawley rats Crl:CD from Charles River, Raleigh, N.C. were divided into treated rats that receive a specific concentration of the compound (see Table 1) and. control rats that only received the vehicle in which the compound is mixed (e.g., saline).
At specified timepoints (6 h, 24 h and 72 h) after administration (intraperitoneal route) of the compound, a set number of rats (usually 3 control and 3 treated) were euthanized and tissues collected. Each, rat was heavily sedated with an overdose of CO2 by inhalation and a maximum amount of blood drawn. Exsanguination of the rat by this drawing of blood kills the rat. The method of collecting the tissues is very important and ensures preserving the quality of the mRNA in the tissues. The body of the rat was then opened up and prosectors rapidly removed the tissues (including) and immediately placed them into liquid nitrogen. […] The organs/tissues were then packaged into well-labeled plastic freezer quality bags and stored at −80 degrees until needed for isolation of the mRNA from a portion of the organ/tissue sample.
Histopathology scores for each animal (assigned on a compound-dose basis as indicated in Table 1) were entered with gene expression data by using the GeneSpring™ ‘Drawn Gene’ function. Correlations between the histopathology scores and gene expression were conducted with the distance measures listed below:
Toxicity classifications were entered for training and test set as a parameter column. Toxicity, as defined by observation of necrosis in the at 72 hours after treatment, was entered as a “yes” or “no” for each animal in a compound-dose group. Additionally, a parameter column for random histopathology classification was designated. This was done by randomly assigning the same number of “yes” and “no” calls to the individual animals.

[2] = 24 h, dose 1000, listed as APAP
[3] = rat, low dose of Table 1, liver necrosis at 72 hours

CC(=O)Nc1ccc(O)cc1 [acetaminophen]
Aflatoxin B1 aldehyde reductase expression (treatment/control) ([1]; 24 h): 3.687 and 4.607 and 5.763
3-hydroxyisobutyrate dehydrogenase expression (treatment/control) [1, 2]: 0.8093 and 0.6875 and 0.5181
14-3-3 zeta expression (treatment/control) [1, 2]: 1.279 and 1.34 and 2.193
25-DX expression (treatment/control) [1, 2]: 1.304 and 1.667 and 1.897
60S ribosomal protein L6 expression (treatment/control) [1, 2]: 1.31 and 2.123 and 2.39
Alpha 1 - inhibitor III expression (treatment/control) [1, 2]: 0.4712 and 0.4696 and 0.2941
Alpha-2-macroglobulin expression (treatment/control) [1, 2]: 0.5487 and 0.4873 and 0.3551
Apolipoprotein CIII expression (treatment/control) [1, 2]: 0.702 and 0.753 and 0.464
Bax (alpha) expression (treatment/control) [1, 2]: 1.285 and 1.306 and 1.621
Calpactin I heavy chain expression (treatment/control) [1, 2]: 1.347 and 1.282 and 1.692
Carbamyl phosphate synthetase I expression (treatment/control) [1, 2]: 0.7736 and 0.7076 and 0.6953
Carbonyl reductase expression (treatment/control) [1, 2]: 1.218 and 1.144 and 1.992
Cofilin expression (treatment/control) [1, 2]: 0.9081 and 0.9679 and 1.261
DNA polymerase beta expression (treatment/control) [1, 2]: 0.8811 and 1.223 and 1.54
Elongation factor-1 alpha expression (treatment/control) [1, 2]: 1.174 and 1.533 and 1.746
Endogenous retroviral sequence, 5′ and 3′ LTR expression (treatment/control) [1, 2]: 1.114 and 1.112 and 1.648
Enolase alpha expression (treatment/control) [1, 2]: 1.382 and 2.619 and 2.308
Epidermal growth factor expression (treatment/control) [1, 2]: 0.7557 and 0.7312 and 0.6935
Extracellular-signal-regulated kinase 1 expression (treatment/control) [1, 2]: 0.452 and 0.4073 and 0.261
Fas antigen expression (treatment/control) [1, 2]: 1.77 and 1.618 and 2.162
Gadd153 expression (treatment/control) [1, 2]: 1.15 and 1.234 and 2.2302
Glucose-regulated protein 78 expression (treatment/control) [1, 2]: 1.949 and 2.017 and 1.914
Hepatic lipase expression (treatment/control) [1, 2]: 0.5231 and 0.4276 and 0.3047
ID-1 expression (treatment/control) [1, 2]: 1.004 and 1.038 and 1.388
IgE binding protein expression (treatment/control) [1, 2]: 1.117 and 1.131 and 1.528
IkB-a expression (treatment/control) [1, 2]: 1.268 and 1.662 and 1.76
Insulin-like growth factor binding protein 3 expression (treatment/control) [1, 2]: 0.5707 and 0.5952 and 0.4059
Liver fatty acid binding protein expression (treatment/control) [1, 2]: 0.4243 and 0.4268 and 0.229
MAP kinase kinase expression (treatment/control) [1, 2]: 1.017 and 1.243 and 1.361
Macrophage inflammatory protein-1 alpha expression (treatment/control) [1, 2]: 1.158 and 1.138 and 1.685
Matrix metalloproteinase-1 expression (treatment/control) [1, 2]: 1.41 and 1.586 and 2.447
Melanoma-associated antigen ME491 expression (treatment/control) [1, 2]: 1.011 and 1.114 and 1.656
Monocyte chemotactic protein receptor (CCR2) expression (treatment/control) [1, 2]: 1.194 and 1.282 and 1.728
NADPH quinone oxidoreductase-1 (DT-diaphorase) expression (treatment/control) [1, 2]: 2.511 and 2.716 and 4.842
Nucleoside diphosphate kinase beta isoform expression (treatment/control) [1, 2]: 1.516
Organic anion transporter 3 expression (treatment/control) [1, 2]: 0.7554 and 0.5816 and 0.5461
Organic cation transporter 3 expression (treatment/control) [1, 2]: 1.215 and 1.663 and 2.064
Ornithine decarboxylase expression (treatment/control) [1, 2]: 1.918 and 2.163 and 3.092
Phase-1 RCT 252 expression (treatment/control) [1, 2]: 0.7905 and 0.6256
Phase-1 RCT-12 expression (treatment/control) [1, 2]: 1.884
Phase-1 RCT-33 expression (treatment/control) [1, 2]: 0.7278 and 0.4867
Phase-1 RCT-36 expression (treatment/control) [1, 2]: 0.9342 and 0.7084
Phase-1 RCT-37 expression (treatment/control) [1, 2]: 1.525 and 1.704
Phase-1 RCT-38 expression (treatment/control) [1, 2]: 0.8079 and 0.6659 and 0.4284
Phase-1 RCT-40 expression (treatment/control) [1, 2]: 0.3766
Phase-1 RCT-48 expression (treatment/control) [1, 2]: 0.6762 and 0.5881
Phase-1 RCT-65 expression (treatment/control) [1, 2]: 1.498
Phase-1 RCT-68 expression (treatment/control) [1, 2]: 2.006
Phase-1 RCT-72 expression (treatment/control) [1, 2]: 1.676
Phase-1 RCT-78 expression (treatment/control) [1, 2]: 0.6314 and 0.4384
Phase-1 RCT-83 expression (treatment/control) [1, 2]: 0.6151 and 0.4373 and 0.3263
Phase-1 RCT-88 expression (treatment/control) [1, 2]: 0.5934 and 0.6891 and 0.4014
Phase-1 RCT-92 expression (treatment/control) [1, 2]: 0.6478 and 0.6327 and 0.3995
Phase-1 RCT-102 expression (treatment/control) [1, 2]: 0.4854 and 0.3992 and 0.2737
Phase-1 RCT-109 expression (treatment/control) [1, 2]: 2.054 and 2.291
Phase-1 RCT-123 expression (treatment/control) [1, 2]: 0.983
Phase-1 RCT-127 expression (treatment/control) [1, 2]: 0.99 and 1.472
Phase-1 RCT-137 expression (treatment/control) [1, 2]: 0.72 and 0.8264 and 0.5868
Phase-1 RCT-145 expression (treatment/control) [1, 2]: 1.2 and 1.522 and 2.335
Phase-1 RCT-152 expression (treatment/control) [1, 2]: 1.202 and 1.996 and 2.355
Phase-1 RCT-154 expression (treatment/control) [1, 2]: 2.226
Phase-1 RCT-162 expression (treatment/control) [1, 2]: 1.476
Phase-1 RCT-168 expression (treatment/control) [1, 2]: 0.7401 and 0.471
Phase-1 RCT-180 expression (treatment/control) [1, 2]: 1.523 and 1.839
Phase-1 RCT-181 expression (treatment/control) [1, 2]: 0.6749
Phase-1 RCT-185 expression (treatment/control) [1, 2]: 0.5075 and 0.4368 and 0.3225
Phase-1 RCT-191 expression (treatment/control) [1, 2]: 1.498 and 2.514
Phase-1 RCT-192 expression (treatment/control) [1, 2]: 1.606 and 1.812
Phase-1 RCT-205 expression (treatment/control) [1, 2]: 1.793
Phase-1 RCT-213 expression (treatment/control) [1, 2]: 1.607 and 2.134
Phase-1 RCT-214 expression (treatment/control) [1, 2]: 0.7129 and 0.7249 and 0.4326
Phase-1 RCT-242 expression (treatment/control) [1, 2]: 1.936
Phase-1 RCT-258 expression (treatment/control) [1, 2]: 1.198 and 1.289 and 1.628
Phase-1 RCT-264 expression (treatment/control) [1, 2]: 0.4839 and 0.3686
Phase-1 RCT-271 expression (treatment/control) [1, 2]: 0.5952
Phase-1 RCT-295 expression (treatment/control) [1, 2]: 1.409 and 1.586 and 1.993
Phase-1 RCT-296 expression (treatment/control) [1, 2]: 0.4087 and 0.2215 and 0.347
Pyruvate kinase, muscle expression (treatment/control) [1, 2]: 1.015 and 0.9969 and 1.833
Ref-1 expression (treatment/control) [1, 2]: 1.85 and 2.112 and 3.617
Ribosomal protein L13A expression (treatment/control) [1, 2]: 2.348 and 2.582
Ribosomal protein S8 expression (treatment/control) [1, 2]: 1.864 and 2.055
Sodium/bile acid cotransporter expression (treatment/control) [1, 2]: 0.7685 and 0.5902 and 0.8858
Superoxide dismutase Mn expression (treatment/control) [1, 2]: 1.274 and 1.178 and 1.931
T-cell cyclophilin expression (treatment/control) [1, 2]: 0.8846 and 1.322 and 1.491
Thymosin beta-10 expression (treatment/control) [1, 2]: 1.285 and 1.383 and 1.788
Transthyretin expression (treatment/control) [1, 2]: 0.427 and 0.4938 and 0.34
Ubiquitin conjugating enzyme (RAD 6 homologue) expression (treatment/control) [1, 2]: 0.9549 and 1.282 and 1.558
Uncoupling protein 2 expression (treatment/control) [1, 2]: 1.201 and 1.111 and 1.462
c-H-ras expression (treatment/control) [1, 2]: 1.118 and 1.069 and 0.9092
p53 expression (treatment/control) [1, 2]: 0.8979 and 1.176 and 1.584
{Ribosomal protein L6} expression (treatment/control) [1, 2]: 1.978 and 2.321
Multidrug resistant protein-1 expression (treatment/control) ([1]; rat, in vivo): 1.241 and 1.202 and 1.889
Paraoxonase 1 expression (treatment/control) ([1]; rat, in vivo): 0.5292 and 0.4965 and 0.3855
Score (histopathology liver necrosis severity score) (Sprague Dawley rats; Sprague Dawley, rat, in vivo, ip, 250 mg/kg, 72 h): 1
Score (histopathology liver necrosis severity score) (Sprague Dawley rats; Sprague Dawley, rat, in vivo, ip, 1000 mg/kg, 72 h): 2
toxicity at the high dose (Sprague Dawley rats; rat, in vivo): produced toxicity
Liver Necrosis (Sprague Dawley rats; rat, in vivo, ip, 250 mg/kg): no
Liver Necrosis (Sprague Dawley rats; rat, in vivo, ip, 1000 mg/kg): Yes
toxicity at the low dose (Sprague Dawley rats; [3]): not at the low dose

lipopolysaccharide
Liver Toxicity Necrosis Classification (Sprague Dawley rats; 72 h, dose 8): yes
Liver Toxicity Necrosis Classification (Sprague Dawley rats; 72 h; dose 2): no
Liver Toxicity Necrosis Classification (Sprague Dawley rats; compound-dose group at 72 h, dose 2): no
Liver Toxicity Necrosis Classification (Sprague Dawley rats; compound-dose group at 72 h, dose 8): yes
Liver Toxicity Necrosis Classification (Sprague Dawley rats; compound-dose group at 72 h; CCL4 1000, DMN 20, LPS 8): yes
Liver Toxicity Necrosis Classification (Sprague Dawley rats; compound-dose group at 72 h; dose 2): no
Liver Toxicity Necrosis Classification (Sprague Dawley rats; compound-dosegroup at 72 h; dose 2): no
Liver Toxicity Necrosis Classification (Sprague Dawley rats; compound-dosegroup at 72 h; dose 8): yes
toxicity at the high dose (Sprague Dawley rats; rat, high dose of Table 1, liver necrosis at 72 hours): produced toxicity
Liver Necrosis (Sprague Dawley rats; rat, intraperitoneal, dose 2 mg/kg, 72 hours after treatment): no
Score (histopathology liver necrosis severity score) (Sprague Dawley rats; rat, intraperitoneal, dose 2 mg/kg, 72 hours; 1 = not remarkable, 2 and higher increasing severity): 1
Liver Necrosis (Sprague Dawley rats; rat, intraperitoneal, dose 8 mg/kg, 72 hours after treatment): Yes
Score (histopathology liver necrosis severity score) (Sprague Dawley rats; rat, intraperitoneal, dose 8 mg/kg, 72 hours; 1 = not remarkable, 2 and higher increasing severity): 6
toxicity at the low dose (Sprague Dawley rats; [3]): not at the low dose

polyethylene glycol
Liver Necrosis (Sprague Dawley rats; rat, in vivo, ip): no
